Assays:
MKK7 = molecular target: T1, MKK7 (Homo sapiens, UniProt O14733); assay: Intact protein mass spectrometry covalent labeling; type: binding; details: 4° C., molecule 20 μM, protein 10 μM
T1 construct: MKK7 isoform 1 (103-426 residues) with a C-terminal 6-His tag; 6-His (C); made in house; host or cells: E. coli Rosetta2 (DE3) pLysS
T1 sequence (O14733 103-426 isoform O14733-3): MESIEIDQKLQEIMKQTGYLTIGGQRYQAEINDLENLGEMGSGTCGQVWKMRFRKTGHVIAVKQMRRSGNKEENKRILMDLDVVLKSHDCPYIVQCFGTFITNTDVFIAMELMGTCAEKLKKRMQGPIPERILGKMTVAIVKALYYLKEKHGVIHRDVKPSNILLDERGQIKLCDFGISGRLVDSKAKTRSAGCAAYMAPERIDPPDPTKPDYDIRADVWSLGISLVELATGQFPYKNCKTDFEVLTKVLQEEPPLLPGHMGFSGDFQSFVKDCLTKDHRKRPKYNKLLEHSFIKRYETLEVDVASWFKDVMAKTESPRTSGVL
Experimental: Intact Protein Mass Spectrometry:
Samples were injected after indicated incubation times into LC/MS (Waters ACUITY UPLC class H), in positive ion mode using electrospray ionization. C4 column (300 Å, 1.7 μM, […]×100 mm) was held at 40° C., and the autosampler at 10° C. Desolvation temperature was 500° C. with flow rate of 1000 liter/hour. The voltage used were 0.69 kV for the capillary and 46 V for the cone. Spectra were deconvoluted using MaxEnt1 software.
After 1 hour or 16 hours incubation at 4° C.

[1] = Metabolic stability in rat liver microsomes; type: in vitro ADME; details: for half-life: rat, liver microsomes
From the text: A reference compound, REF1250, was used in this study: […]

pP38 in HEK293 cells = assay: pP38 response in HEK293 cells; type: cell-based; details: at 10 μM
Experimental: To rapidly assess the cellular activity (EC50) with full dose response curves of the MKK7 covalent inhibitors, according to some embodiments of the present invention, an in-cell western assay was adapted to a 384 well plate format over traditional western blot, and monitored phospho-JNK (pJNK) levels in response to osmotic shock. We first characterized the dynamics of pJNK in response to sorbitol. Sufficient dynamic range for pJNK is achieved at 20 minutes in HEK293 cells and at 40 minutes in 3T3 and Beas2B cells. The compound's activity was assessed by pre-treating cells with either compound or DMSO for 2 hours, followed by Sorbitol stimulation. The response of pJNK, and its substrates, pc-Jun and pATF2, was measured, as well as pP38, which is a substrate of MKK4 but not MKK7, and pERK in HEK293 cells, and the results are presented in Table 5 below.
With similar values for pcJun (2.26 μM and 1.67 μM, respectively) and pATF2 (2.79 μM 5.19 μM, respectively).

catalytic domain of MKK7 = molecular target: T2, catalytic domain of MKK7 (Homo sapiens, UniProt O14733); assay: Activity based fluorescent labeling in bacterial lysate overexpressing MKK7; type: binding; details: pre-incubated with the lysate
T2 construct: over-expressing MKK7 (103-426 residues); 6-His (C); made in house; host or cells: E. coli Rosetta2 BL21 (DE3), crude lysate

AKT1 (PKB alpha) = AKT1 (PKB alpha) (Homo sapiens, UniProt P31749); assay: Kinome selectivity screen AKT1; type: biochemical; details: 1 μM compound
Experimental: (§1) Kinome Selectivity Screen:
(§2) Kinase selectivity was assessed using the Life Technologies SelectScreen Kinase Profiling Service in a custom panel of 76 kinases selected to provide broad representative coverage of all kinase families. Kinase activity assays employed either the Z′-LYTE or Adapta assay technologies with ATP concentrations at or near the KM, ATP for each kinase and a test compound concentration of 1 μM.

CLK1 = CLK1 (Homo sapiens, UniProt P49759); assay: Kinome selectivity screen CLK1; type: biochemical; details: 1 μM compound
Experimental: as §1, §2

CSNK1G2 (CK1 gamma 2) = CSNK1G2 (CK1 gamma 2) (Homo sapiens, UniProt P78368); assay: Kinome selectivity screen CSNK1G2; type: biochemical; details: 1 μM compound
Experimental: as §1, §2

DAPK3 (ZIPK) = DAPK3 (ZIPK) (Homo sapiens, UniProt O43293); assay: Kinome selectivity screen DAPK3; type: biochemical; details: 1 μM compound
Experimental: as §1, §2

EPHA2 = EPHA2 (Homo sapiens, UniProt P29317); assay: Kinome selectivity screen EPHA2; type: biochemical; details: 1 μM compound
Experimental: as §1, §2

FLT1 (VEGFR1) = FLT1 (VEGFR1) (Homo sapiens, UniProt P17948); assay: Kinome selectivity screen FLT1; type: biochemical; details: 1 μM compound
Experimental: as §1, §2

FLT4 (VEGFR3) = FLT4 (VEGFR3) (Homo sapiens, UniProt P35916); assay: Kinome selectivity screen FLT4; type: biochemical; details: 1 μM compound
Experimental: as §1, §2

FRAP1 (mTOR) = FRAP1 (mTOR) (Homo sapiens, UniProt P42345); assay: Kinome selectivity screen FRAP1; type: biochemical; details: 1 μM compound
Experimental: as §1, §2

LRRK2 FL = LRRK2 FL (Homo sapiens, UniProt Q5S007); assay: Kinome selectivity screen LRRK2 FL; type: biochemical; details: 1 μM compound
Experimental: as §1, §2

MAP2K1 (MEK1) = MAP2K1 (MEK1) (Homo sapiens, UniProt Q02750); assay: Kinome selectivity screen MAP2K1; type: biochemical; details: 1 μM compound
Experimental: as §1, §2

MAPK14 (p38 alpha) = MAPK14 (p38 alpha) (Homo sapiens, UniProt Q16539); assay: Kinome selectivity screen MAPK14; type: biochemical; details: 1 μM compound
Experimental: as §1, §2

NEK1 = NEK1 (Homo sapiens, UniProt Q96PY6); assay: Kinome selectivity screen NEK1; type: biochemical; details: 1 μM compound
Experimental: as §1, §2

PDGFRB (PDGFR beta) = PDGFRB (PDGFR beta) (Homo sapiens, UniProt P09619); assay: Kinome selectivity screen PDGFRB; type: biochemical; details: 1 μM compound
Experimental: as §1, §2

PIM1 = PIM1 (Homo sapiens, UniProt P11309); assay: Kinome selectivity screen PIM1; type: biochemical; details: 1 μM compound
Experimental: as §1, §2

RET = RET (Homo sapiens, UniProt P07949); assay: Kinome selectivity screen RET; type: biochemical; details: 1 μM compound
Experimental: as §1, §2

SYK = SYK (Homo sapiens, UniProt P43405); assay: Kinome selectivity screen SYK; type: biochemical; details: 1 μM compound
Experimental: as §1, §2

Sequence of AKT1 (PKB alpha) (P31749 whole entry): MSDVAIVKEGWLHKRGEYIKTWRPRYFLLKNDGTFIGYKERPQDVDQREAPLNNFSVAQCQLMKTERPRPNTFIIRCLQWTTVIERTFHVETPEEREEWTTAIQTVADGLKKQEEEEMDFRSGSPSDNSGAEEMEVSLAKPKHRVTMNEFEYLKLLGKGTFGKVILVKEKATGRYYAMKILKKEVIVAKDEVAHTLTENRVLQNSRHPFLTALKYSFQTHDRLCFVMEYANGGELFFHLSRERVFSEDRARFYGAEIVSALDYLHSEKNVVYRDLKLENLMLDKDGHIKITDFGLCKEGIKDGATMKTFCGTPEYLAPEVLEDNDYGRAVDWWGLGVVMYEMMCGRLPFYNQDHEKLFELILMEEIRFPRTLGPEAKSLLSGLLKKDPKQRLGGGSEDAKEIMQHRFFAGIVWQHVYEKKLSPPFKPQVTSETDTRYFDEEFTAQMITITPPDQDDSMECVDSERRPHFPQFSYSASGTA
Sequence of PDGFRB (PDGFR beta) (P09619 33-1106): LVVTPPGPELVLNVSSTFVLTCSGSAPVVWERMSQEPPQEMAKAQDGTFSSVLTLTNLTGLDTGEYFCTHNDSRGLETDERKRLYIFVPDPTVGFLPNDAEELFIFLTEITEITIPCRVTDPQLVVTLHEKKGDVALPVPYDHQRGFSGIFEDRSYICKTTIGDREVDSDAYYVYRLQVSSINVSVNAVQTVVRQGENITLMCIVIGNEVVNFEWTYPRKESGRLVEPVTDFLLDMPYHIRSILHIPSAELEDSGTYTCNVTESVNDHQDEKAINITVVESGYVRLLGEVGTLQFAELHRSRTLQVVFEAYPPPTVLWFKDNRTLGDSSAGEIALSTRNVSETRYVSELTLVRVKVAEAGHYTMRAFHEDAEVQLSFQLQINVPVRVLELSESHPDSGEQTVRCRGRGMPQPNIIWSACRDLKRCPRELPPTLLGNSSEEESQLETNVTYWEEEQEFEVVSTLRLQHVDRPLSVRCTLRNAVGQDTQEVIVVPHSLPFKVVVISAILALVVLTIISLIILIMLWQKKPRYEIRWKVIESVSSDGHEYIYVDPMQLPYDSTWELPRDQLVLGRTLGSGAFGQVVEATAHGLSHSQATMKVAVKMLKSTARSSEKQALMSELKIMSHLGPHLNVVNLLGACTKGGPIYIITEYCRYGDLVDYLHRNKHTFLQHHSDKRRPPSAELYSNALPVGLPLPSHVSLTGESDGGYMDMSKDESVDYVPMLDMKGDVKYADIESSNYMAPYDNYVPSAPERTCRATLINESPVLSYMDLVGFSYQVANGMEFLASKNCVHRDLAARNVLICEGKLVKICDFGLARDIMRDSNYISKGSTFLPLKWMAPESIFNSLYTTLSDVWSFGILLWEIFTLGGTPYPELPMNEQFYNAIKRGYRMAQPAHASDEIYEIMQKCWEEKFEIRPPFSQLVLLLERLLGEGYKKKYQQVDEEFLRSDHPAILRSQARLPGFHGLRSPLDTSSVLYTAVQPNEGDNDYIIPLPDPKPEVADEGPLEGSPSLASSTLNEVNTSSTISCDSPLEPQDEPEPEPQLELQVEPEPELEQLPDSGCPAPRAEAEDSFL
Sequence of MAP2K1 (MEK1) (Q02750 whole entry): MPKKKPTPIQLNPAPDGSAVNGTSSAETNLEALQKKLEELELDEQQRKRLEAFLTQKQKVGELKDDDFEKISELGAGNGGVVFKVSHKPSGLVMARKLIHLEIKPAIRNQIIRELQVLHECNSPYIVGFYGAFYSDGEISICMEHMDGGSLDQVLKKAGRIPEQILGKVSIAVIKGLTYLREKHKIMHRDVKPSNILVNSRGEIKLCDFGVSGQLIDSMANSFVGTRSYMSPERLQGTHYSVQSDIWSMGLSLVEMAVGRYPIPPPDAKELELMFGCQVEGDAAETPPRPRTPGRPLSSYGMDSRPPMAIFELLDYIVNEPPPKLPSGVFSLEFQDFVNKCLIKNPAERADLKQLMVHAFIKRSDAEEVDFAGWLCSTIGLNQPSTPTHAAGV
Sequence of FLT1 (VEGFR1) (P17948 27-1338): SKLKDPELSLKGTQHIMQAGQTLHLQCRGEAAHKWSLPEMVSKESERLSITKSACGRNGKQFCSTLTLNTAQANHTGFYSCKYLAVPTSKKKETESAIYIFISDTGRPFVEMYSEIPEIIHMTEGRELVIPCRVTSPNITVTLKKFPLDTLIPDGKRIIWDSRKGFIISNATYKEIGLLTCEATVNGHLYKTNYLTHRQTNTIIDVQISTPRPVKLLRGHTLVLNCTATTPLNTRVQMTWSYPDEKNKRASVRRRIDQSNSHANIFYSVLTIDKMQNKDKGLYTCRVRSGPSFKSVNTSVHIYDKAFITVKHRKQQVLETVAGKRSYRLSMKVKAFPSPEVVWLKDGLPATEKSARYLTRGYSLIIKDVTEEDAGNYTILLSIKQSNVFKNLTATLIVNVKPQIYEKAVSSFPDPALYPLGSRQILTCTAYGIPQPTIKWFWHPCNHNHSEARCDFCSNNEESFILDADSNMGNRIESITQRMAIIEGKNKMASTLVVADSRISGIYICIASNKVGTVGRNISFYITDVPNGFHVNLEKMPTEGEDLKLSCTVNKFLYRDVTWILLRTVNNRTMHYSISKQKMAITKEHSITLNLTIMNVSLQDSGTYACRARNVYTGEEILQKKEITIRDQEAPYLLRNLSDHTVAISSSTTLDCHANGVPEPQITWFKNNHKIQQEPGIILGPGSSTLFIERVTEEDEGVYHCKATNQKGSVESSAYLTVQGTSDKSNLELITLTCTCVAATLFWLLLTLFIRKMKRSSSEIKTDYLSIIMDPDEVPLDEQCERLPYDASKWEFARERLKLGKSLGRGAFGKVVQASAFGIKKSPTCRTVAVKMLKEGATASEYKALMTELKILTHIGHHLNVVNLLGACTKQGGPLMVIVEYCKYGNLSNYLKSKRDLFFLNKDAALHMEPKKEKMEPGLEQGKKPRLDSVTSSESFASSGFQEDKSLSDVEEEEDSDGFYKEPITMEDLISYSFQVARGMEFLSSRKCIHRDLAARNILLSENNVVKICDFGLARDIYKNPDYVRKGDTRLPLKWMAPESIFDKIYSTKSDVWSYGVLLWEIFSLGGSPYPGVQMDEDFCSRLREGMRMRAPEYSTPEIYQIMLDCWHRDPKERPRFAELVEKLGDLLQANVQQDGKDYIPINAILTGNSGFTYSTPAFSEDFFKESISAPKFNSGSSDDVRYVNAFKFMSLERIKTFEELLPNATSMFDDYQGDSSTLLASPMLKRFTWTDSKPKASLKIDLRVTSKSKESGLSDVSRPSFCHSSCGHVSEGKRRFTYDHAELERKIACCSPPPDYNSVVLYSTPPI
Sequence of MAPK14 (p38 alpha) (Q16539 whole entry): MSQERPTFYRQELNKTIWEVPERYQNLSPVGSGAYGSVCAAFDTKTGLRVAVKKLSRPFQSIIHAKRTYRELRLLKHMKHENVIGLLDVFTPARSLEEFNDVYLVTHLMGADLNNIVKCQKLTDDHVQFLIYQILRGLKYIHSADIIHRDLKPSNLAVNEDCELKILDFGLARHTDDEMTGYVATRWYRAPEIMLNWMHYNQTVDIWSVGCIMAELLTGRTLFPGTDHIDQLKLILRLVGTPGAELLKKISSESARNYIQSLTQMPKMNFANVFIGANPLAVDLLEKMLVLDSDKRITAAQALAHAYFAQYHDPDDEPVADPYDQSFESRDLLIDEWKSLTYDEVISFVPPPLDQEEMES
Sequence of DAPK3 (ZIPK) (O43293 whole entry): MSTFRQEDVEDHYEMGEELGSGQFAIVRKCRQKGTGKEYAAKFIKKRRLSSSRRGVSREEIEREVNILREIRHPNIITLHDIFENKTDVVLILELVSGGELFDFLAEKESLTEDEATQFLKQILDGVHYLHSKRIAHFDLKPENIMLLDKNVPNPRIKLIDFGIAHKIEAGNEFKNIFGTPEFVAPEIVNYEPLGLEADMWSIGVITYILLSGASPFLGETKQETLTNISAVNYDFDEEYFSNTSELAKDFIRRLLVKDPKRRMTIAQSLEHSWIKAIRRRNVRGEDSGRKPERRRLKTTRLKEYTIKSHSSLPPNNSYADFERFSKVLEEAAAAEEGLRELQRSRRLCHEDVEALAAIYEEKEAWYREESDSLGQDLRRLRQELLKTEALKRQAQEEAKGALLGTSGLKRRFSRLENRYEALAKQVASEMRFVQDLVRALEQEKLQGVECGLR
Sequence of CSNK1G2 (CK1 gamma 2) (P78368 whole entry): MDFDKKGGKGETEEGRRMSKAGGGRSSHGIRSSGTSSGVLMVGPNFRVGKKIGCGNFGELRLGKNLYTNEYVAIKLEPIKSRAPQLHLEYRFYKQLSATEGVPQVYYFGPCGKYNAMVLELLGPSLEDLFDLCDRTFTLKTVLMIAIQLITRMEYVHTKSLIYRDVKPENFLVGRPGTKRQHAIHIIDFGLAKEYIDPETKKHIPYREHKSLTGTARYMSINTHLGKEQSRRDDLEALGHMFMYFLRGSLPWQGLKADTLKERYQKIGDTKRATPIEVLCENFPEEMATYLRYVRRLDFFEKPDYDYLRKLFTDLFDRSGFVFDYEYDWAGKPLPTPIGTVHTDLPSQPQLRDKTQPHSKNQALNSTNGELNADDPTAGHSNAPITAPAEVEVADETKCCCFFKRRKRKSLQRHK
Sequence of CLK1 (P49759 whole entry): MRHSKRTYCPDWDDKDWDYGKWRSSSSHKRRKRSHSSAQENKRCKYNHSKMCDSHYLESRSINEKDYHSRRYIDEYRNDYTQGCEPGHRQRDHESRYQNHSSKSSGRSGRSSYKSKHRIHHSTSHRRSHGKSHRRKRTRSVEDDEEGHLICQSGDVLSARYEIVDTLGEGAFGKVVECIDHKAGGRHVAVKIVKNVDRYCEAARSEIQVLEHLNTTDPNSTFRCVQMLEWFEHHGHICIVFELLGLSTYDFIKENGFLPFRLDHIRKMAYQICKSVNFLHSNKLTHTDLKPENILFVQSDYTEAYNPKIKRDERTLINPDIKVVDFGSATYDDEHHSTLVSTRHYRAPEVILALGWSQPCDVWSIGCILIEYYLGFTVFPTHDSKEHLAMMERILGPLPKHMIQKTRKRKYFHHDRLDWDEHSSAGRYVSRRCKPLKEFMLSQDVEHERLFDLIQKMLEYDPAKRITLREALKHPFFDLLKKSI

Structure (SMILES) | covalent labeling (MKK7; 1 hour) [%] | covalent labeling (MKK7; 16 hours) [%] | % remaining @ 40 min [1] [%] | half-life [1] [min] | effect on pP38 levels (pP38 in HEK293 cells) | competition of PCM548 binding (catalytic domain of MKK7) | inhibition at 1 µM (AKT1 (PKB alpha)) [%] | inhibition at 1 µM (CLK1) [%] | inhibition at 1 µM (CSNK1G2 (CK1 gamma 2)) [%] | inhibition at 1 µM (DAPK3 (ZIPK)) [%] | inhibition at 1 µM (EPHA2) [%] | inhibition at 1 µM (FLT1 (VEGFR1)) [%] | inhibition at 1 µM (FLT4 (VEGFR3)) [%] | inhibition at 1 µM (FRAP1 (mTOR)) [%] | inhibition at 1 µM (LRRK2 FL) [%] | inhibition at 1 µM (MAP2K1 (MEK1)) [%] | inhibition at 1 µM (MAPK14 (p38 alpha)) [%] | inhibition at 1 µM (NEK1) [%] | inhibition at 1 µM (PDGFRB (PDGFR beta)) [%] | inhibition at 1 µM (PIM1) [%] | other results
C=CC(=O)Nc1cccc(-c2n[nH]c3c2CCCC3)c1 [GO4] | 65.16 | 95.15 | 0 | < 5 |  |  |  |  |  |  |  |  |  |  |  |  |  |  |  |  | 
C=CC(=O)Nc1cccc(-c2n[nH]c3ccccc23)c1 [GO32] | 78.14 | 96.29 | 0 | < 5 | no effect | able to compete PCM548 binding | -5 | 14 | 3 | -3 | -16 | -1 | -2 | -2 | 91 | 4 | 9 | 5 | -3 | 1 | inhibition at 1 µM (RET): 6%; inhibition at 1 µM (SYK): 19%
C=CC(=O)Nc1cccc(-c2n[nH]c3cc(C)ccc23)c1 [GO80] | 59.58 | 92.87 | 1 | 6 | did not affect | able to compete PCM548 binding | -4 | 2 | -13 | -2 | -13 | 2 | 0 | -2 | 86 | 4 | 16 | 2 | -13 | 5 | inhibition at 1 µM (RET): 5%; inhibition at 1 µM (SYK): 17%

Reference: patent US20210238173A1, “MITOGEN-ACTIVATED PROTEIN KINASE KINASE 7 INHIBITORS” (Yeda Research and Development Co. Ltd., priority 2018, published 2021)
